Experiment: xn = mol fraction of the nth substance listed
Conditions: 100 kPa

O + CC(N)C(=O)[O-].CCCC[n+]1ccn(C)c1C
x2 = 0
Conditions | viscosity [mPa·s]
288.15 K | 1.17
293.15 K | 1.03
303.15 K | 0.82
308.15 K | 0.74

O + CCCC[n+]1ccn(C)c1C.NCC(=O)[O-]
x2 = 0
Conditions | viscosity [mPa·s]
288.15 K | 1.17
293.15 K | 1.03
298.15 K | 0.91
303.15 K | 0.82
318.15 K | 0.61

O + N[C@@H]([C@H](O)C)C(=O)[O-].C(CCC)N1C(=[N+](C=C1)C)C
x2 = 0
Conditions | viscosity [mPa·s]
288.15 K | 1.17
298.15 K | 0.91
303.15 K | 0.82
308.15 K | 0.74
318.15 K | 0.61

CC(N)C(=O)[O-].CCCC[n+]1ccn(C)c1C + O
viscosity [mPa·s]
Conditions | x1 = 0.1003 | x1 = 0.2012 | x1 = 0.3009 | x1 = 0.4014 | x1 = 0.4938 | x1 = 0.5975 | x1 = 0.6987 | x1 = 0.7945 | x1 = 0.8965 | x1 = 1
288.15 K | 28.4 | 52 | 86 | 127 | 168 | 215 | 270 | 336 | 429 | 520
293.15 K | – | 40 | 64 | 95 | 126 | 161 | – | 244 | 307 | –
298.15 K | 17.1 | 30.5 | 48.9 | 72 | 96 | 123 | 151 | 183 | 226 | 268
303.15 K | 12.8 | 23.3 | 36.8 | 54 | 72 | 92 | 113 | 136 | 165 | 192
308.15 K | 10.6 | 19 | 30 | 44 | 58 | 75 | 92 | 110 | 131 | 150
313.15 K | 8.1 | 14.7 | 23 | 33.5 | 44.2 | 57 | – | 82 | 97 | 110
318.15 K | 6.7 | 12.1 | – | 27.5 | 36.3 | 46.7 | 57 | 67 | 77 | –
